Test results: patent publication US20130079370A1, “Method for the Inhibition of Deubiquitinating Activity” (priority 2011, published 2013)

Legend:
[1] = test system: HCT-116 Bcl2+ colon carcinoma xenografts; test: HCT-116 Bcl2+ colon carcinoma xenografts in nude mice, tumor onset; assay type: in vivo; conditions: 5 mg/kg 4-5 times weekly for 3 weeks; log-rank P=0.0136; vs vehicle
Method: Animal experiments were conducted in full accordance with Swedish governmental statutory regulations on animal welfare under permission from local ethical committees. Animals were housed at a max of five per cage and provided with sterile water and food ad libitum. All mice were monitored and weighed daily. For the head and neck carcinoma model a 100-μl cell suspension containing 1×10^6 FaDu cells was injected subcutaneously into the right rear flank of the animals. After injection, tumor growth was measured daily with calipers and the tumor volume calculated by the formula L×W^2×0.44. When tumors had grown to a size of approximately 200 mm^3 (Day 0) mice were randomized to receive either vehicle (n=10) or b-AP15 5 mg/kg by subcutaneous injection s.c. (n=15) daily. […] Nineteen days after malignant cell injection all of the mice were killed and histopathological manifestations of liver, ovary (target organs for this model of tumor) were evaluated and compared between groups. […]
SCID mice bearing FaDu human tumor xenografts were randomized at tumor take (200 mm^3) and treated by daily subcutaneous injection with either vehicle (n=10) or 5 mg kg^−1 b-AP15 (n=15) for 10 days. […] Mice were treated with vehicle (n=6) or 5 mg kg^−1 b-AP15 (n=6) 4-5 times weekly for 3 weeks and monitored for tumor onset (log-rank, P=0.0136, hazard ratio=7.9). […]

[2] = test system: Lewis Lung Carcinoma (LLC) tumors; test: Syngenic lung carcinoma (LLC) model; assay type: in vivo, C57BL/6J mice; conditions: 5 mg/kg i.p.
[3] = test system: orthotopic breast carcinomas (4T1); test: Orthotopic breast carcinoma (4T1) model; assay type: in vivo, BALB/c mice; conditions: 2.5 mg/kg i.p., 1 day on/3 days off

## C=CC(=O)N1C/C(=C\c2ccc([N+](=O)[O-])cc2)C(=O)/C(=C/c2ccc([N+](=O)[O-])cc2)C1 [b-AP15, (3E,5E)-3,5-bis[(4-nitrophenyl)methylidene]-1-(prop-2-enoyl)piperidin-4-one]
[1]
  hazard ratio, disease free survival: 7.9
[2]
  difference in weight at the start and the endpoint between control and treated animals: +2.1%
[3]
  difference in weight at the start and the endpoint between control and treated animals: +5.8%
